Measured values published in ChEMBL document CHEMBL1153906 (Bioorg Med Chem, 2009).

What was measured:
[1] = Inhibition of Caenorhabditis elegans carbonic anhydrase 4b by CO2 hydration assay
[2] = Selectivity ratio of Ki for human carbonic anhydrase 2 to Ki for Caenorhabditis elegans carbonic anhydrase 4b

Row | Compound | Ki [1] [nM] | Ratio Ki [2]
1 | NNC(=O)c1[nH]c2ccc(S(N)(=O)=O)cc2c1-c1ccccc1Cl | 372 | 0.1
2 | NNC(=O)c1[nH]c2ccc(S(N)(=O)=O)cc2c1-c1ccccc1Br | 260 | 0.18
3 | NNC(=O)c1[nH]c2ccc(S(N)(=O)=O)cc2c1-c1c(F)c(F)c(F)c(F)c1F | 260 | 0.02
4 | NNC(=O)c1[nH]c2ccc(S(N)(=O)=O)cc2c1-c1cccc(Br)c1 | 13.4 | 4.03
5 | COc1cccc(-c2c(C(=O)NN)[nH]c3ccc(S(N)(=O)=O)cc23)c1 | 330 | 0.02
6 | NNC(=O)c1[nH]c2ccc(S(N)(=O)=O)cc2c1-c1ccc(Cl)cc1 | 6.5 | 1.78
7 | Cc1ccccc1-c1c(C(=O)NN)[nH]c2ccc(S(N)(=O)=O)cc12 | 326 | 0.03
8 | Cc1ccc(-c2c(C(=O)NN)[nH]c3ccc(S(N)(=O)=O)cc23)cc1 | 12.2 | 4.95
9 | Cc1cccc(-c2c(C(=O)NN)[nH]c3ccc(S(N)(=O)=O)cc23)c1 | 13.3 | 3.63
10 | NNC(=O)c1[nH]c2ccc(S(N)(=O)=O)cc2c1-c1cccc(Cl)c1 | 10.1 | 0.91
11 | NNC(=O)c1[nH]c2ccc(S(N)(=O)=O)cc2c1-c1cccc(F)c1 | 9.9 | 0.86
12 | NNC(=O)c1[nH]c2ccc(S(N)(=O)=O)cc2c1-c1ccc(Br)cc1 | 11.5 | 3.54
13 | NNC(=O)c1[nH]c2ccc(S(N)(=O)=O)cc2c1-c1ccccc1F | 12.5 | 2.88
14 | NNC(=O)c1[nH]c2ccc(S(N)(=O)=O)cc2c1-c1ccc(F)cc1 | 6 | 2.58
